Measurements from US11883524B2, “Cosmetic compositions” (MARY KAY INC., priority 2018, dated 2024).

How the values were obtained:
[1] = test system: procollagen peptide production by human epidermal fibroblasts; experiment: Increase of collagen stimulation (procollagen peptide ELISA); assay type: cell-based; conditions: human adult epidermal fibroblasts, treated 3 days
Text: Increase of Collagen Stimulation: Collagen is an extracellular matrix protein critical for skin structure. Increased synthesis of collagen helps improve skin firmness and elasticity. This bioassay was used to examine the effect of tetrahexyldecyl ascorbate, and/or Phyllanthus emblica fruit extract on the production of procollagen peptide (a precursor to collagen) by human epidermal fibroblasts. The endpoint of this assay was a spectrophotometric measurement that reflects the presence of procollagen peptide and cellular viability. The assay employed the quantitative sandwich enzyme immunoassay technique whereby a monoclonal antibody specific for procollagen peptide had been pre-coated onto a microplate. Standards and samples were pipetted into the wells and any procollagen peptide present was bound by the immobilized antibody. […] Following a wash to remove any unbound antibody-enzyme reagent, a substrate solution was added to the wells and color develops in proportion to the amount of procollagen peptide bound in the initial step using a microplate reader for detection at 450 nm. The color development was stopped and the intensity of the color was measured. […] Following incubation, cell culture medium was collected and the amount of procollagen peptide secretion quantified using a sandwich enzyme linked immuno-sorbant assay (ELISA) from Takara (#MK101).

[2] = molecular target: T1, MMP3 (Homo sapiens, UniProt P08254); experiment: Inhibition of matrix metalloproteinase enzyme activity (MMP3) assay; assay type: biochemical
T1 construct: purchased BioMol International AK-400
Text: Inhibition of Matrix Metalloproteinase Enzyme Activity (MMP3) Assay: MMPs are extracellular proteases that play a role in many normal and disease states by virtue of their broad substrate specificity. MMP3 substrates include collagens, fibronectins, and laminin; while MMP9 substrates include collagen VII, fibronectins and laminin. Using Colorimetric Drug Discovery kits from BioMol International for MMP3 (AK-400) and MMP-9 (AK-410), this assay was designed to measure protease activity of MMPs using a thiopeptide as a chromogenic substrate (Ac-PLG-[2-mercapto-4-methyl-pentanoyl]-LG-OC2H5)5,6. The MMP cleavage site peptide bond was replaced by a thioester bond in the thiopeptide. Hydrolysis of this bond by an MMP produced a sulfhydryl group, which reacted with DTNB [5,5′-dithiobis(2-nitrobenzoic acid), Ellman's reagent] to form 2-nitro-5-thiobenzoic acid, which was detected by its absorbance at 412 nm (ε=13,600 M-1 cm-1 at pH 6.0 and above 7). Tetrahexyldecyl ascorbate was assayed.

T1 sequence (P08254 100-272 limits assumed): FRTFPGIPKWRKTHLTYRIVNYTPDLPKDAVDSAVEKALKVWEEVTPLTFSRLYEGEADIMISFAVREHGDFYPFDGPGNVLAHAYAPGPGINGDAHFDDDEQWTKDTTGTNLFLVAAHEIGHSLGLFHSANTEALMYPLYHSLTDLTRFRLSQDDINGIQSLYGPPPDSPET

Inhibition of MMP3 activity [2]: −38%
Compound: CCCCCCCCC(CCCCCC)C(=O)OC[C@H](OC(=O)C(CCCCCC)CCCCCCCC)[C@H]1OC(=O)C(OC(=O)C(CCCCCC)CCCCCCCC)=C1OC(=O)C(CCCCCC)CCCCCCCC (some centres unmarked) [Tetrahexyldecyl ascorbate]
Increase of collagen [1]: +50%
